# Results published in ChEMBL document CHEMBL5154851, “Novel benzothiazole‒urea hybrids: Design, synthesis and biological activity as potent anti-bacterial agents against MRSA” (Eur J Med Chem, 2022).
# The source made the active and inactive calls. No cut-off for these calls is given here.
# Assays:
# Staphylococcus aureus [1] = test: Antibacterial activity against Staphylococcus aureus ATCC6538 incubated for 18 to 20 hrs by double dilution method; type: functional; conditions: time 18-20 hrs
# Staphylococcus aureus [2] = test: Antibacterial activity against methicillin-resistant Staphylococcus aureus ATCC2858 incubated for 18 to 20 hrs by double dilution method; type: functional; conditions: time 18-20 hrs
# Escherichia coli = test: Antibacterial activity against Escherichia coli incubated for 18 to 20 hrs by double dilution method; type: functional; conditions: time 18-20 hrs
# Pseudomonas aeruginosa = test: Antibacterial activity against Pseudomonas aeruginosa incubated for 18 to 20 hrs by double dilution method; type: functional; conditions: time 18-20 hrs
# Staphylococcus aureus [3] = test: Antibiofilm activity against methicillin-resistant Staphylococcus aureus ATCC2858 assessed as minimal biofilm eradication concentration incubated for 24 hrs by crystal violet staining based assay; type: functional
# Candida albicans = test: Antibacterial activity against Candida albicans ATCC10231 incubated for 18 to 20 hrs by double dilution method; type: functional; conditions: time 18-20 hrs
# Staphylococcus aureus [4] = test: Antibacterial activity against methicillin-resistant Staphylococcus aureus clinical isolate ATCC0101 incubated for 18 to 20 hrs by double dilution method; type: functional; conditions: time 18-20 hrs
# Staphylococcus aureus [5] = test: Antibacterial activity against methicillin-resistant Staphylococcus aureus clinical isolate ATCC05107 incubated for 18 to 20 hrs by double dilution method; type: functional; conditions: time 18-20 hrs
# Staphylococcus aureus [6] = test: Antibacterial activity against methicillin-resistant Staphylococcus aureus clinical isolate ATCC10105 incubated for 18 to 20 hrs by double dilution method; type: functional; conditions: time 18-20 hrs
# HepG2 [7] = test: Cytotoxicity against human HepG2 cells assessed as cell survival rate at 25 uM incubated for 24 hrs by MTT assay relative to control; type: functional
# Staphylococcus aureus [8] = test: Antibacterial activity against methicillin-resistant Staphylococcus aureus ATCC2858 assessed as reduction in bacterial growth at 0.5 to 4 times of MIC measured after 4 to 8 hrs by time kill assay; type: functional, organism-based; conditions: time 4-8 hrs
# Staphylococcus aureus [9] = test: Antibiofilm activity against methicillin-resistant Staphylococcus aureus ATCC2858 assessed as biofilm eradication at 0.049 to 100 uM incubated for 24 hrs by crystal violet staining based assay; type: functional, organism-based; conditions: dose 0.049-100 µM
# Staphylococcus aureus [10] = test: Induction of drug resistance in methicillin-resistant Staphylococcus aureus ATCC2858 assessed as fold increase in MIC measured over 20 passage by broth dilution assay; type: functional; conditions: time 20.0 day
# HepG2 [11] = test: Cytotoxicity against human HepG2 cells assessed as cell survival rate at 50 uM incubated for 24 hrs by MTT assay relative to control; type: functional
# Staphylococcus aureus [12] = test: Antibiofilm activity against methicillin-resistant Staphylococcus aureus ATCC2858 assessed as biofilm eradication incubated for 24 hrs by crystal violet staining based assay; type: functional, organism-based; conditions: dose 0.049-100 µM, DDE = dose-dependent effect
# Cell membrane = test: Induction of cell membrane damage in methicillin-resistant Staphylococcus aureus ATCC2858 at 2 times of MIC measured after 4 to 12 hrs by DAPI and propidium iodide staining based confocal laser scanning microscopy analysis; conditions: time 4-12 hrs
# Staphylococcus aureus [13] = test: Induction of drug resistance in methicillin-resistant Staphylococcus aureus ATCC2858 assessed as fold increase in MIC measured after 19 passage by broth dilution assay; type: functional; conditions: time 19.0 day
# [14] = Toxicity in overnight fasted ICR mouse assessed as change in appearance at 200 mg/kg, IG measured for 7 days; type: organism-based; conditions: in vivo, po, 168 h, time 7 day
# [15] = Toxicity in overnight fasted ICR mouse assessed as change in activity at 200 mg/kg, IG measured for 7 days; type: organism-based; conditions: in vivo, po, 168 h, time 7 day
# [16] = Toxicity in overnight fasted ICR mouse assessed as change in body weight at 200 mg/kg, IG measured for 7 days; type: organism-based; conditions: in vivo, po, 168 h, time 7 day
# [17] = Hepatotoxicity in C57BL/6J mouse assessed as central necrosis at 200 mg/kg, po measured after 24 hrs by hematoxylin and eosin staining based immunohistochemical analysis; type: toxicity, organism-based; conditions: in vivo
# [18] = Hepatotoxicity in C57BL/6J mouse assessed as steatosis in hepatic hilum at 200 mg/kg, po measured after 24 hrs by hematoxylin and eosin staining based immunohistochemical analysis; type: toxicity, organism-based; conditions: in vivo
# Staphylococcus aureus [19] = test: Antibacterial activity against methicillin-resistant Staphylococcus aureus ATCC2858 infected in C57BL/6J mouse assessed as log reduction in bacterial titres in blood at 2 mg/kg, ip measured after 24 hrs; type: functional
# Staphylococcus aureus [20] = test: Antibacterial activity against methicillin-resistant Staphylococcus aureus ATCC2858 infected in C57BL/6J mouse assessed as log reduction in bacterial titres in blood at 5 mg/kg, ip measured after 24 hrs; type: functional
SMILES,MIC (Staphylococcus aureus [1]) [µM],MIC (Staphylococcus aureus [2]) [µM],MIC (Escherichia coli) [µM],MIC (Pseudomonas aeruginosa) [µM],MIC (Candida albicans) [µM],also measured
CO[C@@]1(NC(=O)Cc2cccs2)C(=O)N2C(C(=O)O)=C(COC(N)=O)CS[C@@H]21 [CEFOXITIN],25,100,50,> 200,,
CC1COc2c(N3CCN(C)CC3)c(F)cc3c(=O)c(C(=O)O)cn1c23 (stereo not drawn) [OFLOXACIN],0.78,1.56,0.39,1.56,,MBEC (Staphylococcus aureus [3]): 3 µM
O=C(Nc1ccc(Sc2nc3ccccc3s2)c(Cl)c1)N1CCSC1,> 200,> 200,> 200,> 200,> 200,
O=C(Nc1ccc(Sc2nc3ccccc3s2)cc1)N1CCOCC1,200,200,> 200,> 200,> 200,
O=C(Nc1ccc(Sc2nc3ccccc3s2)c(Cl)c1)N1CCOCC1,> 200,> 200,> 200,> 200,> 200,
O=C(NCc1ccccc1Cl)Nc1ccc(Sc2nc3ccccc3s2)c(Cl)c1,> 200,> 200,> 200,> 200,> 200,
O=C(Nc1ccc(Sc2nc3ccccc3s2)cc1)Nc1ccc(F)c(F)c1,0.39,0.78,> 200,> 200,> 200,MIC (Staphylococcus aureus [4]): 1.56 µM; MIC (Staphylococcus aureus [5]): 3.12 µM; MIC (Staphylococcus aureus [6]): 1.56 µM
O=C(Nc1ccc(Sc2nc3ccccc3s2)c(Cl)c1)N1CCCC1,> 200,> 200,> 200,> 200,> 200,
O=C(Nc1ccc(Sc2nc3ccccc3s2)c(Cl)c1)Nc1ccccc1C(F)(F)F,3.12,3.12,> 200,> 200,> 200,
O=C(Nc1ccc(Br)cc1)Nc1ccc(Sc2nc3ccccc3s2)c(Cl)c1,0.78,0.78,> 200,> 200,> 200,
O=C(Nc1ccc(F)cc1)Nc1ccc(Sc2nc3ccccc3s2)c(Cl)c1,0.78,1.56,> 200,> 200,> 200,
O=C(Nc1ccc(C(F)(F)F)cc1)Nc1ccc(Sc2nc3cc(Cl)ccc3s2)c(Cl)c1,0.39,0.78,> 200,> 200,> 200,
CN1CCN(C(=O)Nc2ccc(Sc3nc4ccccc4s3)c(Cl)c2)CC1,100,100,200,200,200,
O=C(Nc1ccc(Sc2nc3ccccc3s2)cc1)Nc1ccc(C(F)(F)F)cc1,0.39,0.39,> 200,> 200,> 200,MIC (Staphylococcus aureus [4]): 0.78 µM; MIC (Staphylococcus aureus [5]): 0.78 µM; MIC (Staphylococcus aureus [6]): 0.39 µM; Activity (HepG2 [7]): >75%; Activity (Staphylococcus aureus [8]): Active; Activity (Staphylococcus aureus [9]): Active; MBEC (Staphylococcus aureus [3]): 5 µM
CC(=O)NC[C@H]1CN(c2ccc(N3CCOCC3)c(F)c2)C(=O)O1 [LINEZOLID],3.12,6.25,> 50,> 50,,
O=C(Nc1ccccc1C(F)(F)F)N1CCC(Sc2nc3ccccc3s2)CC1,3.12,3.12,> 200,> 200,> 200,
O=C(Nc1ccc(F)c(F)c1)Nc1ccc(Sc2nc3cc(Cl)ccc3s2)c(Cl)c1,0.39,0.78,> 200,> 200,> 200,fold change (FC) (Staphylococcus aureus [10]): 64; MIC (Staphylococcus aureus [4]): 1.56 µM; MIC (Staphylococcus aureus [5]): 1.56 µM; MIC (Staphylococcus aureus [6]): 0.78 µM; Activity (HepG2 [11]): 50%; Activity (HepG2 [7]): >75%; Activity (Staphylococcus aureus [8]): Active; Activity (Staphylococcus aureus [12]): Dde; MBEC (Staphylococcus aureus [3]): 4 µM; Activity (Cell membrane): Active; fold change (FC) (Staphylococcus aureus [13]): 256; Activity [14]: Non-Toxic; Activity [15]: Non-Toxic; Activity [16]: Non-Toxic; Activity [17]: Non-Toxic; Activity [18]: Non-Toxic; log(activity) (Staphylococcus aureus [19]): 1.9; log(activity) (Staphylococcus aureus [20]): 2.4
O=C(Nc1ccc(C(F)(F)F)cc1)Nc1ccc(Sc2nc3ccccc3s2)c(Cl)c1,0.39,0.78,> 200,> 200,> 200,MIC (Staphylococcus aureus [4]): 0.78 µM; MIC (Staphylococcus aureus [5]): 1.56 µM; MIC (Staphylococcus aureus [6]): 1.56 µM; Activity (HepG2 [11]): 20%; Activity (HepG2 [7]): >75%; Activity (Staphylococcus aureus [9]): Active; MBEC (Staphylococcus aureus [3]): 5 µM
O=C(Nc1ccc(Sc2nc3ccccc3s2)c(Cl)c1)Nc1ccc(Cl)cc1Cl,0.78,0.78,> 200,> 200,> 200,
CN[C@H](CC(C)C)C(=O)N[C@H]1C(=O)N[C@@H](CC(N)=O)C(=O)N[C@H]2C(=O)N[C@H]3C(=O)N[C@H](C(=O)N[C@H](C(=O)O)c4cc(O)cc(O)c4-c4cc3ccc4O)[C@H](O)c3ccc(c(Cl)c3)Oc3cc2cc(c3O[C@@H]2O[C@H](CO)[C@@H](O)[C@H](O)[C@H]2O[C@H]2C[C@](C)(N)[C@H](O)[C@H](C)O2)Oc2ccc(cc2Cl)[C@H]1O [VANCOMYCIN],,0.78,,,,MIC (Staphylococcus aureus [4]): 0.78 µM; MIC (Staphylococcus aureus [5]): 1.56 µM; MIC (Staphylococcus aureus [6]): 1.56 µM; MBEC (Staphylococcus aureus [3]): 7 µM
